How the values were obtained:
Assay in all cases: Greenhouse postemergence herbicidal effect (visual injury)
Assay type in all cases: in vivo
[1] = tested on: POLCO, Polygonum convolvulus (wild buckwheat)
Excerpt: (§1) Seeds of the desired test plant species were planted in a 90:10% v/v (volume/volume) mixture of PRO-MIX® BX (Premier Tech Horticulture, Quakertown, Pa., USA) and PROFILE® GREENS GRADE™ (Profile Products LLC, Buffalo Grove, Ill., USA) planting mixture, which typically has a pH of 5.2 to 6.2 and an organic matter content of at least 50 percent, in plastic pots with a surface area of 103.2 square centimeters (cm^2). In some aspects, to help ensure good germination and healthy plants, a fungicide treatment and/or other chemical or physical treatment was applied. The plants were grown for 7-36 days (d) in a greenhouse with an approximate 14-hour (h) photoperiod which was maintained at about 23° C. during the day and 22° C. during the night. Nutrients and water were added on a regular basis and supplemental lighting was provided with overhead metal halide 1000-Watt lamps as necessary. The plants were employed for testing when they reached the second or third true leaf stage.
(§2) Emulsifiable concentrates of each of each pyridine carboxylate herbicide (Compound A or Compound B) were prepared at 100 grams acid equivalent per liter (g ae/L). The emulsifiable concentrates also included a safener, cloquintocet-mexyl, at 120 grams active ingredient per liter (g ai/L), unless otherwise noted below. An aliquot of each emulsifiable concentrate was placed in a 25 mL glass vial and diluted with an aqueous mixture of 1.25% (v/v) ACTIROB® B esterified rapeseed oil (Bayer Crop Science, Research Triangle Park, N.C., USA) or MSO® Concentrate with LECI-TECH® methylated soybean oil (Loveland Products, Loveland, Colo., USA) to obtain concentrated stock solutions at the highest application rate for each herbicide, based upon a 12 milliliter (mL) application volume at a rate of 187 liters per hectare (L/ha). The concentrated stock solutions were further diluted with an aqueous mixture of 1.25% v/v ACTIROB® B or MSO® Concentrate with LECI-TECH® to obtain stock solutions at reduced application rates for each herbicide. Spray solutions of the herbicide combinations (Compound A or Compound B plus ACCase inhibitor herbicide) were prepared by adding weighed amounts or aliquots of the ACCase inhibitor herbicide to the stock solutions of Compound A or Compound B to form 12-mL spray solutions in two-way combinations.
(§3) The spray solutions were applied to the plant material with an overhead Mandel track sprayer equipped with 8002E nozzles calibrated to deliver 187 L/ha over an application area of 0.503 square meters (m^2) at a spray height of 18 inches (43 centimeters (cm)) above the average plant canopy. Control plants were sprayed in the same manner with the solvent blank. All pyridine carboxylate herbicide (component a) application rates are given as “g ae/ha” and all ACCase inhibitor herbicide (component b) application rates are given as “g ai/ha.”
(§4) The treated plants and control plants were placed in a greenhouse as described above and watered by sub-irrigation to prevent wash-off of the test compounds. After 20-22 d, the condition of the test plants as compared with that of the control plants was determined visually and scored on a scale of 0 to 100 percent where 0 corresponds to no injury and 100 corresponds to complete kill.

[2] = tested on: ABUTH, Abutilon theophrasti (velvetleaf)
Excerpt: as §1, §2, §3, §4

[3] = tested on: IPOHE, Ipomoea hederacea (ivyleaf morningglory)
Excerpt: as §1, §2, §3, §4

[4] = tested on: HELAN, Helianthus annuus (common sunflower)
Excerpt: as §1, §2, §3, §4

ZEAMX, Zea mays (maize) = conditions: with cloquintocet-mexyl
Excerpt: as §1, §2, §3, §4

[5] = 7.5 g ae/ha, without cloquintocet-mexyl
[6] = 10 g ae/ha, without cloquintocet-mexyl

N#CCOC(=O)c1nc(-c2ccc3cc[nH]c3c2F)c(F)c(N)c1Cl [Compound A, cyanomethyl 4-amino-3-chloro-5-fluoro-6-(7-fluoro-1H-indol-6-yl)pyridine-2-carboxylate]
% visual injury, Obs [1, 5]: 80% | % visual injury, Obs [1, 6]: 78% | % visual injury, Obs ([1]; POLCO, Compound A 7.5 g/ha, Fluazifop 0 g/ha): 80% | % visual injury, Obs ([1]; POLCO, Compound A 10 g/ha, Fluazifop 0 g/ha): 78% | % visual injury, Obs [2, 5]: 70% | % visual injury, Obs [2, 6]: 75% | % visual injury, Obs ([2]; ABUTH, Compound A 7.5 g/ha, Fluazifop 0 g/ha): 70% | % visual injury, Obs ([2]; ABUTH, Compound A 10 g/ha, Fluazifop 0 g/ha): 75% | % visual injury, Obs [3, 5]: 10% | % visual injury, Obs [3, 6]: 15% | % visual injury, Obs ([3]; IPOHE, Compound A 7.5 g/ha, Fluazifop 0 g/ha): 10% | % visual injury, Obs ([3]; IPOHE, Compound A 10 g/ha, Fluazifop 0 g/ha): 15% | % visual injury, Obs [4, 5]: 95% | % visual injury, Obs [4, 6]: 100% | % visual injury, Obs ([4]; HELAN, Compound A 7.5 g/ha, Fluazifop 0 g/ha): 95% | % visual injury, Obs ([4]; HELAN, Compound A 10 g/ha, Fluazifop 0 g/ha): 100% | % visual injury, Obs (ZEAMX, Zea mays (maize); 7.5 g ae/ha): 0% | % visual injury, Obs (ZEAMX, Zea mays (maize); 10 g ae/ha): 0%

Reference: patent US20210392892A1, “COMPOSITIONS COMPRISING PYRIDINE CARBOXYLATE HERBICIDES AND ACETYL COA CARBOXYLASE (ACCASE) INHIBITOR HERBICIDES” (Corteva Agriscience LLC, priority 2018, published 2021)
